# Laboratory results reported in ChEMBL document CHEMBL1158106, “Penifulvins B-E and a silphinene analogue: sesquiterpenoids from a fungicolous isolate of Penicillium griseofulvum” (J Nat Prod, 2006).
# Calls of active or inactive are those of the source. No cut-off for these calls is given here.
# Columns and labels:
# Type in all cases: functional, organism-based
# Aspergillus flavus = test: Antifungal activity against Aspergillus flavus NRRL 6541 at 100 ug/disk by agar disk diffusion assay
# Bacillus subtilis = test: Antibacterial activity against Bacillus subtilis ATCC 6051 at 100 ug/disk by agar disk diffusion assay
# Staphylococcus aureus = test: Antibacterial activity against Staphylococcus aureus ATCC 29213 at 100 ug/disk by agar disk diffusion assay
# Candida albicans = test: Antifungal activity against Candida albicans ATCC 14053 at 100 ug/disk by agar disk diffusion assay
# Spodoptera frugiperda = test: Insecticidal activity against Spodoptera frugiperda at 100 ug/disk
Compound,Activity (Aspergillus flavus),Activity (Bacillus subtilis),Activity (Staphylococcus aureus),Activity (Candida albicans),Activity (Spodoptera frugiperda)
C[C@@]1(CO)C[C@]2(C)CC=C[C@]23[C@H](C(=O)O)CC[C@@H]13,inactive,inactive,inactive,inactive,inactive
CC1(C)C[C@]2(C)CC(=O)O[C@H]3OC(=O)[C@@H]4CC[C@@H]1[C@]342,–,–,–,–,Active
C[C@@]1(CO)C[C@]2(C)CC(=O)O[C@H]3OC(=O)[C@@H]4CC[C@@H]1[C@]342,inactive,inactive,inactive,inactive,inactive
